Laboratory results as given in patent US20250255976A1, “CATIONIC BIOMATERIALS AMELIORATE OBESITY-ASSOCIATED CHRONIC INFLAMMATION AND FOCAL ADIPOSITY” (THE TRUSTEES OF COLUMBIA UNIVERSITY IN THE CITY OF NEW YORK, priority 2022, published 2025).

Target: T1, TLR3 (Homo sapiens, UniProt O15455)
T1 construct: host or cells: HEK-Blue (HEK293) TLR3 reporter cells
T1 sequence (O15455 24-904): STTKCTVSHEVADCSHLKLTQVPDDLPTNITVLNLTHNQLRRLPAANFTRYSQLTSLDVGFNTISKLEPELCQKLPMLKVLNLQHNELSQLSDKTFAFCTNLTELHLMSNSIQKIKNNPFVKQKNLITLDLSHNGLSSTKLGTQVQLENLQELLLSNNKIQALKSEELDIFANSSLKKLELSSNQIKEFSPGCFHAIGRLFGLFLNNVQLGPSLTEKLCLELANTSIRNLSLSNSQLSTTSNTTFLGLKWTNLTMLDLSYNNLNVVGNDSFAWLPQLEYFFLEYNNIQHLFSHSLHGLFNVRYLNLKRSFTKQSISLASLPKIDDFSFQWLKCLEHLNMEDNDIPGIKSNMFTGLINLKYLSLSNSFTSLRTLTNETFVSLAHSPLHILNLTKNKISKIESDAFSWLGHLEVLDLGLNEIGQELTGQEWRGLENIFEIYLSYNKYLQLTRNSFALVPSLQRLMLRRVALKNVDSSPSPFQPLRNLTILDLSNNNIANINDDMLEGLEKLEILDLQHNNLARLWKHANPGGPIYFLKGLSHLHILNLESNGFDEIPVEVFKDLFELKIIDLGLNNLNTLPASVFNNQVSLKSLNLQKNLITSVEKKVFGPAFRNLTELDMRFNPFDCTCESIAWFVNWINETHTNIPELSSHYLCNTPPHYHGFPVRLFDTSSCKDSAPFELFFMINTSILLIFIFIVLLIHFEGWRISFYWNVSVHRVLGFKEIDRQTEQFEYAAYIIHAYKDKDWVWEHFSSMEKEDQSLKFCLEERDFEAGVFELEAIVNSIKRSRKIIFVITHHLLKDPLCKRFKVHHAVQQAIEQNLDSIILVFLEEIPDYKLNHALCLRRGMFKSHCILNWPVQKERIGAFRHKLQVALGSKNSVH
Assay: HEK-Blue TLR3 reporter cell SEAP assay, stimulated with murine plasma or liver total RNA
Format: cell-based
Conditions: plasma from DIO mice; inhibitor added 30 min before stimulus, or plasma digested with RNase I; FIG. 2F
Procedure: Stable TLR3-, 4-, 8-, and 9-overexpressing HEK-Blue and TLR3 knockout (KO) HEK-Dual Null cells (Invivogen) were propagated in high-glucose Dulbecco's modified Eagle's medium (DMEM) with 10% (v/v) fetal bovine serum (FBS, Corning) and maintained in growth medium supplemented with selective antibiotics following the manufacturer's instructions. RAW264.7 cells (ATCC) were cultured in high-glucose DMEM with 10% (v/v) FBS and then were subcultured by detachment with a cell scraper. C3H10T1/2 cells (ATCC) were cultured in high-glucose DMEM with 10% (v/v) FBS and 1× penicillin/streptomycin (Thermo Fisher). 3T3-L1 cells (ATCC) were cultivated in high-glucose DMEM with 10% (v/v) calf serum and 1× penicillin/streptomycin to maintain the undifferentiated status. At two days post-confluence, 3T3-L1 preadipocytes were induced to differentiate into adipocytes using an adipogenic cocktail containing 10 μg/mL insulin, 1 μM dexamethasone, and 0.5 mM 3-isobutyl-1-methylxanthine in 10% FBS DMEM. Two days post-induction, the cell medium was switched to the maintenance medium of 10% FBS DMEM supplemented with 2.5 μg/mL insulin.
HEK-Blue TLR3 cells (5×10^4 cells/well) were seeded and cultured overnight in 96-well plates in DMEM and then stimulated with murine plasma or liver total RNA. After 48 h, the activation of reporter cells was determined with a Quanti-blue medium (Invivogen). […]

| Compound | activation of TLR3 by obese plasma |
| --- | --- |
| O=C(N[C@H](Cc1ccccc1)C(=O)O)c1sc2cc(F)ccc2c1Cl [TLR3 inhibitor] | blocked |
| ribonuclease I [RNase I] | blocked |
